Earlier results on four molecules are cited in patent US5869538A, “Method for enhancing transport of gases to tissues” (priority 1996, dated 1999).

Molecules are shown by their SMILES.

For the data set the following is noted: for Diffusivities / Solubilities: Table 2, simulation parameter.

As to `O=C=O` [CO2, carbon dioxide], the Diffusivities was 1.05 × 10^-3 cm^2 /min and the Solubilities is listed as 2.35 mlml^-1 100 kPa^-1.
With `N#N` [N2, nitrogen], the Diffusivities is 1.32 × 10^-3 cm^2 /min.
Turning to `[N-]=[N+]=O` [N2O, reference compound], the N2O solubility is 0.45 ml N2 O /ml blood/atm.
In the case of `O=O` [O2, oxygen], the Diffusivities is 1.24 × 10^-3 cm^2 /min and the Solubilities is recorded as 0.0227 mlml^-1 100 kPa^-1.
